Test results from patent US20220226270A1, “VERY-LONG-CHAIN POLYUNSATURATED FATTY ACIDS, ELOVANOID HYDROXYLATED DERIVATIVES, AND METHODS OF USE” (Board of Supervisors of Louisiana State University and …, priority 2019, published 2022).

Tested on: Sprague-Dawley rats, middle cerebral artery occlusion (MCAo)
Assay: Experimental ischemic stroke, 2 h middle cerebral artery occlusion (MCAo)
Assay type: in vivo, rat
Settings: for reduction of total lesion volume compared to CSF-treated group: T2WI on day 7, 5 μg/50 μl into right lateral ventricle 1 h after 2 h of MCAo; for IgG staining intensity compared with the CSF-treated group / IgG staining in the cortex: at 7 days; for IgG staining intensity compared with the CSF-treated group: ipsilateral hemisphere; for IgG immunoreactivity in cortex, subcortex and whole hemisphere (total): versus the vehicle group (FIG. 22B)
Description: Middle cerebral artery occlusion and cannula implantation into the right lateral ventricle: Male Sprague-Dawley rats (Charles River Lab., Wilmington, Mass.) weighing 280-340 g were fasted overnight but allowed free access to water. Atropine sulfate (0.5 mg/kg, i.p.) was injected 10 mins before anesthesia. Anesthesia was induced with 3% isoflurane in a mixture of 70% nitrous oxide and 30% oxygen. All rats were orally intubated and mechanically ventilated. During ventilation, the animals were paralyzed with pancuronium bromide (0.6 mg/kg, i.p.). The catheters were implanted into the right femoral artery and vein for the blood sampling and infusion of drug. Serial analyses of arterial blood gases, plasma glucose, arterial blood pressure and heart beating rate were conducted before and during surgical procedure. Rectal (CMA/150 Temperature Controller, CMA/Microdialysis AB, Stockholm, Sweden) and cranial (temporalis muscle; Omega Engineering, Stamford, Conn.) temperatures were closely monitored before, during and after MCAo. Rectal temperature and body weight were monitored daily until sacrifice.
Rats underwent 2 h of right middle cerebral artery occlusion (MCAo) by an intraluminal-filament. In brief, the right common carotid artery (CCA) bifurcation was exposed through a midline neck incision and the occipital artery branches of the external carotid artery were isolated, ligated and dissected. After careful isolation of the internal carotid artery (ICA), a 3-0 monofilament coated with poly-L-lysine was advanced through the ICA to the MCA until mild resistance was felt. The neck incision was closed with a silk suture and the animals were then allowed to recover. After 2 h of MCAo, rats were re-anesthetized with the same anesthetic combination. Temperature probes were re-inserted, and intraluminal sutures were carefully removed. The animals given free access to food and water for 7 days.
Thirty minutes after suture removal, a brain infusion cannula was implanted into the right lateral ventricle for treatment administration in each rat. Rats were anesthetized with 3% isoflurane and were secured to a stereotaxic apparatus with skull leveled between bregma and lambda. A sterile stainless steel cannula (5-mm long) was implanted into the lateral ventricle using the stereotaxic coordinates (0.2 mm caudal to bregma, 2 mm lateral to midline, and 5 mm below the dura). Cannulas were removed after treatment was completed.
Treatment: Elovanoids (ELV) as sodium salts (Na) or methyl esters (Me) were dissolved in artificial cerebral spinal fluid (CSF) and administered into right lateral ventricle 1 hour after 2 h of MCAo. The following ELVs were used: ELV-N32-Na, ELV-N32-Me, ELV-N34-Na and ELV-N34-Me (5 μg/50 μl) or CSF (50 μl). All treatments were administered by a researcher blinded to the treatment groups.
Neurological/Behavioral Tests: Behavioral tests were performed by an observer blinded to the treatment groups at 60 mins (during MCAo) and then on days 1, 2, 3 and 7 after MCAo. The battery consisted of two tests that have been used previously to evaluate various aspects of neurologic function: (1) the postural reflex test, to examine upper body posture while the animal is suspended by the tail; and (2) the forelimb placing test, to examine sensorimotor integration in forelimb placing responses to visual, tactile and proprioceptive stimuli. Neurological function was graded on a scale of 0-12 (normal score=0, maximal score=12).
Magnetic resonance imaging (MRI) acquisition and analysis of total lesion, core and penumbra volumes: High resolution ex vivo MRI was performed on 4% paraformaldehyde-fixed brains on day 7 using an 11.7T Bruker Advance 8.9 cm horizontal bore instrument equipped with an 89 mm (ID) receiver coil (Bruker Biospin, Billerica, Mass.). T2 weighted images (T2WI), diffusion weighted images (DWI), 3D volumes, and apparent diffusion coefficient (ADC) maps were collected. T2 and ADC maps were computed from T2WI and DWI, respectively. […]

| SMILES | reduction of total lesion volume compared to CSF-treated group | IgG staining intensity compared with the CSF-treated group | IgG staining in the cortex | IgG immunoreactivity in cortex, subcortex and whole hemisphere (total) |
| --- | --- | --- | --- | --- |
| CC/C=C\C[C@H](O)\C=C/C=C/C=C/[C@H](O)C/C=C\C/C=C\CCCCCCCCCCCCC(=O)OC [ELV-N32-Me, methyl (14Z,17Z,20R,21E,23E,25Z,27S,29Z)-20,27-dihydroxydotriaconta-14,17,21,23,25,29-hexaenoate] | 56% | similar | – | – |
| CC/C=C\C[C@H](O)\C=C/C=C/C=C/[C@H](O)C/C=C\C/C=C\CCCCCCCCCCCCC(=O)[O-].[Na+] [ELV-N32-Na, sodium (14Z,17Z,20R,21E,23E,25Z,27S,29Z)-20,27-dihydroxydotriaconta-14,17,21,23,25,29-hexaenoate] | 60% | similar | – | – |
| CC/C=C\C[C@H](O)\C=C/C=C/C=C/[C@H](O)C/C=C\C/C=C\CCCCCCCCCCCCCCC(=O)OC [ELV-N34-Me, methyl (16Z,19Z,22R,23E,25E,27Z,29S,31Z)-22,29-dihydroxytetratriaconta-16,19,23,25,27,31-hexaenoate] | 91% | – | significantly less IgG staining | significantly reduced |
| CC/C=C\C[C@H](O)\C=C/C=C/C=C/[C@H](O)C/C=C\C/C=C\CCCCCCCCCCCCCCC(=O)[O-].[Na+] [ELV-N34-Na, sodium (16Z,19Z,22R,23E,25E,27Z,29S,31Z)-22,29-dihydroxytetratriaconta-16,19,23,25,27,31-hexaenoate] | 99% | – | significantly less IgG staining | significantly reduced |
